According to patent US20160176914A1, “GLYCOSYLATED CARDIOTONIC STEROIDS” (priority 2013, published 2016):
Like-named read-outs stand apart in the source and are kept apart here.

Columns and labels:
[1] = system: NCI-H460 cells; assay: cells; assay type: cell-based, Human; details: for IC50: Homo sapiens; for cytotoxicity / activity for H460 cells, in words: comparison
Procedure: Human non-small cell lung cancer cells (NCI-H460) were purchased from the American Type Culture Collection (Manassas, Va.). NCI-H460 cells were cultured in RPMI 1640 medium supplemented with 10% bovine fetal serum (FBS), 2 mM L-glutamine and 100-units/ml penicillin/streptomycin. All experiments with NCI-H460 cells were performed in medium enriched with 1% FBS serum, 2 mM L-glutamine and 100-units/ml penicillin/streptomycin. 1% FBS was used due to existing concerns about digitoxin binding to serum proteins.
Cells were seeded overnight in 96 well plates at a concentration of 1×10^4 cells/well, and then treated for 48 h with a log10 scale dilution series of the glycosylated CS compounds (e.g., digitoxin or D6-MA) dissolved in sterile filtered DMSO. Subsequently, 10 μl of 5 mg/ml MTT reagent was added to each well and then incubated for 4 h at 37° C. Isopropanol acidified with 0.04 N HCl was used to dissolve converted dye. Absorbance at 570 nm was measured using an Automated Microplate Reader ELx800 (BioTek, Winooski, Vt.). Each experiment was conducted 4 times with 4 replicate wells per concentration.
All results are presented as mean±standard deviation. For cell viability, ATPase activity and apoptosis assays, dose-response curves and concentrations that caused 50% effect (i.e. IC50) were calculated for the prepared compounds listed in Tables 1-3 in all the cell lines tested using non-linear regression analysis in GraphPad Prism 5.0 (San Diego, Calif.). Two-way analysis of variance (ANOVA) and unpaired two-tailed Student's t-test with α=0.05 were performed to compare the effect of compounds and administered dose on cell viability, apoptosis and quantified protein expression data. Post-hoc Tukey-Kramer HSD tests were conducted on significant ANOVA results. Results were considered significant when p≦0.05.

[2] = target: α3β1 Na+/K+ ATPase (Homo sapiens, UniProt P13637); assay: Na+/K+ ATPase pump binding, α3β1 isoform (radioactive displacement assay)
Procedure: (§1) α1/2/3-Na^+/K^+ ATPase pump binding data was assessed for compounds of Table 1.
(§2) Further, from the results, a strong correlation between cancer cell cytotoxicity and α1/3-Na^+/K^+ ATPase pump binding selectivity was observed (see: α-L-amiceto-mono-, di- and tri-saccharides; Scheme 1). In addition, it was observed that mono-saccharides have improved activity and α1/2/3-isoform selectivity. […] The Na^+/K^+ ATPase binding data also correlates with the cytotoxicity data, which can be seen in the binding data of compounds 1.5-1.7 to all three isomers (α1β1/α2β1/α3β1), which decreases proportionally the MTT data (Table 1).

[3] = target: α1β1 Na+/K+ ATPase (Homo sapiens, UniProt P05023); assay: Na+/K+ ATPase pump binding, α1β1 isoform (radioactive displacement assay)
Procedure: as §1, §2

[4] = target: α2β1 Na+/K+ ATPase (Homo sapiens, UniProt P50993); assay: Na+/K+ ATPase pump binding, α2β1 isoform (radioactive displacement assay)
Procedure: as §1, §2

[5] = system: HCMV; assay: Anti-CMV activity assay, inhibition of HCMV replication in infected HFFs; assay type: cell-based, human Cytomegalovirus (HCMV); details: anti-HCMV activity in infected HFFs; read-out: EC50
Procedure: It has been observed that the infection of human foreskin fibroblasts (HFF) cells with HCMV causes an up regulation of the α3-isoform of the Na^+/K^+-Pump. Therefore the inhibition of HCMV replication by the compounds described herein was tested using procedure described by Cai, H. et al., in Med. Chem. Lett. 2014, 5, 395-399, which is incorporated by reference in its entirety. Generally, inhibition of Towne HCMV: pp28-luciferase activity was measured in cell lysates of HCMV-infected HFFs collected at 72 h post infection (hpi). Virus DNA yield in supernatants of HCMV-infected cells collected at 96 hpi was measured by real-time PCR. Plaque reduction assay performed at 8 days postinfection. Data represent mean values (±SD) of triplicate determinations from three independent experiments.
Inhibition of TB40 HCMV: HFFs were infected with HCMV-TB40 strain at MOI of 1 pfu/cell and treated with compounds listed in Tables 1-3 for 3 days.
The glycosylated cardiotonic steroid compounds were tested for their anti-cytomegalovirus (CMV) activity. Specifically, the compounds were tested for the ability to inhibit HCMV replication. For each compound, the anti-HCMV activity in infected HFFs was expressed as EC50, whereas cytotoxicity in noninfected HFFs was expressed as CC50. Selectivity index (SI), defined as CC50/EC50, was calculated for each compound.

[6] = NCI-H460, Table 5, H460 cells, compounds of Table 2, read-out: IC50
[7] = NCI-H460, Table 6, H460 cells, compounds of Table 3, read-out: IC50
[8] = NCI-H460, 48 h, read-out: Anticancer MTT IC50

Compound | IC50 [1, 6] [nM] | cytotoxicity / activity for H460 cells, in words [1] | IC50 [1, 7] [nM] | other results
CC1O[C@@H](O[C@H]2CCC3(C)C(CC[C@@H]4C3CCC3(C)[C@@H](C5=CC(=O)OC5)CC[C@]43O)C2)C(O)C(O)[C@H]1N (stereo in doubt) [Compound 2.1, digitoxigenin α-L-4-amino-rhamnopyranoside] | 5.1 | improved cytotoxicity | – | –
CC1O[C@@H](OC2C(O)[C@H](O[C@H]3CCC4(C)C(CC[C@@H]5C4CCC4(C)[C@@H](C6=CC(=O)OC6)CC[C@]54O)C3)OC(C)[C@@H]2O)C(O)C(O)[C@H]1O (stereo in doubt) [Compound 2.3, digitoxigenin α-L-rhamnopyranosyl-(1 → 3)-α-L-rhamnopyranoside] | 45.5 | does not significantly reduce activity | – | –
CC1O[C@H](OC2C(O)[C@H](O[C@H]3CCC4(C)C(CC[C@@H]5C4CCC4(C)[C@@H](C6=CC(=O)OC6)CC[C@]54O)C3)OC(C)[C@@H]2O)C(O)C(O)[C@@H]1O (stereo in doubt) [Compound 2.4, digitoxigenin α-D-rhamnopyranosyl-(1 → 3)-α-L-rhamnopyranoside] | 332 | – | – | –
CC1O[C@H](OC2C(O)[C@H](OC3C(O)[C@H](O[C@H]4CCC5(C)C(CC[C@@H]6C5CCC5(C)[C@@H](C7=CC(=O)OC7)CC[C@]65O)C4)OC(C)[C@@H]3O)OC(C)[C@@H]2O)C(O)C(O)[C@@H]1O (stereo in doubt) [Compound 2.9, digitoxigenin α-D-rhamnopyranosyl-(1 → 3)-α-L-rhamnopyranosyl-(1 → 3)-α-L-rhamnopyranoside] | 86 | – | – | –
CC1O[C@@H](OC2C(O)[C@H](OC3C(O)[C@H](O[C@H]4CCC5(C)C(CC[C@@H]6C5CCC5(C)[C@@H](C7=CC(=O)OC7)CC[C@]65O)C4)OC(C)[C@@H]3O)OC(C)[C@@H]2O)C(O)C(O)[C@H]1O (stereo in doubt) [Compound 2.10, digitoxigenin α-L-rhamnopyranosyl-(1 → 3)-α-L-rhamnopyranosyl-(1 → 3)-α-L-rhamnopyranoside] | 50.6 | – | – | –
C[C@@H]1O[C@@H](O[C@H]2CC[C@@]3(C)[C@H](CC[C@@H]4[C@@H]3C[C@@H](O)[C@]3(C)[C@@H](C5=CC(=O)OC5)CC[C@]43O)C2)CC[C@H]1O (stereo in doubt) [Compound 3.3, digoxigenin α-L-amecitopyranoside] | – | more active than the diastereomeric α-D-sugars | 54 | –
C[C@@H]1O[C@@H](O[C@H]2CC[C@@]3(C)[C@H](CC[C@@H]4[C@@H]3C[C@@H](O)[C@]3(C)[C@@H](C5=CC(=O)OC5)CC[C@]43O)C2)[C@H](O)[C@H](O)[C@H]1O (stereo in doubt) [Compound 3.7, digoxigenin α-L-rhamnopyranoside] | – | more active than the diastereomeric α-D-sugars | 19 | –
CC1OC(OC2C(C)OC(OC3C(C)OC(OC4CCC5(C)C(CCC6C5CCC5(C)C(C7=CC(=O)OC7)CCC65O)C4)C(O)C3O)C(O)C2O)C(O)C(O)C1O (stereo not shown) [Compound 1.4] | – | – | – | Kd [2]: 345 nM; Kd [3]: 393 nM; Kd [4]: 164 nM; IC50 [1, 8]: 1350 nM
CC1OC(OC2CCC(OC3CCC4(C)C(CCC5C4CCC4(C)C(C6=CC(=O)OC6)CCC54O)C3)OC2C)CCC1O (stereo not shown) [Compound 1.6] | – | – | – | Kd [2]: 186 nM; Kd [3]: 223 nM; Kd [4]: 156 nM; IC50 [1, 8]: 510 nM
CC1O[C@@H](O[C@H]2CCC3(C)C(CC[C@@H]4C3CCC3(C)[C@@H](C5=CC(=O)OC5)CC[C@]43O)C2)CC[C@H]1N (stereo partly drawn) [Compound 2.2, digitoxigenin α-L-4-amino-amecitopyranoside] | 3.1 | improved cytotoxicity | – | –
CC1OC(O[C@H]2CCC3(C)C(CCC4C3CCC3(C)[C@@H](C5=CC(=O)OC5)CC[C@]43O)C2)C(O)C(OC2CC[C@@H](O)C(C)O2)[C@H]1O (stereo partly drawn) [Compound 2.5, [2,3-dihydro-4-hydroxy-α-L-Amip-(1→3)-2,4-dihydroxy-α-L-Rhap]-Dig] | 389 | – | – | –
CC1OC(O[C@H]2CCC3(C)C(CCC4C3CCC3(C)[C@@H](C5=CC(=O)OC5)CC[C@]43O)C2)C(O)C(OC2CC[C@H](O)C(C)O2)[C@H]1O (stereo partly drawn) [Compound 2.6, [2,3-dihydro-4-hydroxy-α-D-Amip-(1→3)-2,4-dihydroxy-α-L-Rhap]-Dig] | 651 | – | – | –
CC1O[C@H](O[C@H]2C(C)O[C@@H](O[C@H]3CCC4(C)C(CC[C@@H]5C4CCC4(C)[C@@H](C6=CC(=O)OC6)CC[C@]54O)C3)C(O)C2O)C(O)C(O)[C@@H]1O (stereo partly drawn) [Compound 2.7, digitoxigenin α-D-rhamnopyranosyl-(1 → 4)-α-L-rhamnopyranoside] | 70 | much greater activity | – | –
C[C@H]1O[C@H](O[C@H]2CC[C@@]3(C)[C@H](CC[C@@H]4[C@@H]3C[C@@H](O)[C@]3(C)[C@@H](C5=CC(=O)OC5)CC[C@]43O)C2)CC[C@@H]1O [Compound 3.1] | – | – | 253 | –
C[C@H]1O[C@H](O[C@H]2CC[C@@]3(C)[C@H](CC[C@@H]4[C@@H]3C[C@@H](O)[C@]3(C)[C@@H](C5=CC(=O)OC5)CC[C@]43O)C2)[C@@H](O)[C@@H](O)[C@@H]1O [Compound 3.2] | – | – | 486 | –
CC(=O)O[C@@H]1C[C@H]2[C@@H](CC[C@@H]3C[C@@H](O[C@H]4CC[C@@H](O)[C@H](C)O4)CC[C@@]32C)[C@@]2(O)CC[C@H](C3=CC(=O)OC3)[C@@]12C [Compound 3.4] | – | – | 3440 | –
C[C@@H]1O[C@@H](O[C@H]2CC[C@@]3(C)[C@H](CC[C@@H]4[C@@H]3C[C@@H](OC(=O)C(C)(C)C)[C@]3(C)[C@@H](C5=CC(=O)OC5)CC[C@]43O)C2)CC[C@H]1O [Compound 3.5] | – | greatly reduced activity | ≥ 50000 | –
C[C@@H]1O[C@@H](O[C@H]2CC[C@@]3(C)[C@H](CC[C@@H]4[C@@H]3C[C@@H](O[Si](C)(C)C(C)(C)C)[C@]3(C)[C@@H](C5=CC(=O)OC5)CC[C@]43O)C2)CC[C@H]1O [Compound 3.6] | – | – | 29700 | –
CC(=O)O[C@@H]1C[C@H]2[C@@H](CC[C@@H]3C[C@@H](O[C@@H]4O[C@@H](C)[C@H](O)[C@@H](O)[C@H]4O)CC[C@@]32C)[C@@]2(O)CC[C@H](C3=CC(=O)OC3)[C@@]12C [Compound 3.8] | – | – | 5980 | –
C[C@@H]1O[C@@H](O[C@H]2CC[C@@]3(C)[C@H](CC[C@@H]4[C@@H]3C[C@@H](OC(=O)CCl)[C@]3(C)[C@@H](C5=CC(=O)OC5)CC[C@]43O)C2)[C@H](O)[C@H](O)[C@H]1O [Compound 3.9] | – | – | 105 | –
C[C@@H]1O[C@@H](O[C@H]2CC[C@@]3(C)[C@H](CC[C@@H]4[C@@H]3C[C@@H](OC(=O)C(C)(C)C)[C@]3(C)[C@@H](C5=CC(=O)OC5)CC[C@]43O)C2)[C@H](O)[C@H](O)[C@H]1O [Compound 3.10] | – | greatly reduced activity | ≥ 50000 | –
C[C@@H]1O[C@@H](O[C@H]2CC[C@@]3(C)[C@H](CC[C@@H]4[C@@H]3C[C@@H](O[Si](C)(C)C(C)(C)C)[C@]3(C)[C@@H](C5=CC(=O)OC5)CC[C@]43O)C2)[C@H](O)[C@H](O)[C@H]1O [Compound 3.11] | – | – | 2250 | –
α-D-Mannose | – | – | – | EC50 [5]: 7.31 ± 0.12 nM
